Results from the NIST ThermoML archive (doi:10.1016/j.tca.2005.08.012).

Assays:
[1] = xn = mol fraction of the nth substance listed; details: 101 kPa, Liquid, Vibrating tube method
[2] = 101.33 kPa, Liquid, Vibrating tube method

CCN(CC)CC [triethylamine] + c1ccccc1
mass density [kg/m3], [1]
Details | x1 = 0.0102 | x1 = 0.0209 | x1 = 0.0311 | x1 = 0.0395 | x1 = 0.0501 | x1 = 0.0618 | x1 = 0.0712 | x1 = 0.0804 | x1 = 0.0919 | x1 = 0.1
303.15 K | 865.85 | 863.38 | 861.03 | 859.07 | 856.75 | 854.1 | 851.95 | 850 | 847.45 | 845.76
313.15 K | 855.14 | 852.62 | 850.24 | 848.31 | 845.93 | 843.31 | 841.23 | 839.27 | 836.79 | 835.08

CCCNCCC [dipropylamine] + C1CCCCC1
mass density [kg/m3], [1]
Details | x1 = 0.0114 | x1 = 0.0213 | x1 = 0.0321 | x1 = 0.0414 | x1 = 0.0509 | x1 = 0.0622 | x1 = 0.0727 | x1 = 0.0811 | x1 = 0.0919
303.15 K | 768.31 | 767.65 | 766.94 | 766.29 | 765.71 | 764.96 | 764.29 | 763.78 | 763.13
313.15 K | 758.72 | 758.03 | 757.3 | 756.67 | 756.07 | 755.34 | 754.66 | 754.17 | 753.52

CCCCN(CCCC)CCCC [tributylamine] + c1ccccc1
mass density [kg/m3], [1]
Details | x1 = 0.0102 | x1 = 0.0206 | x1 = 0.0302 | x1 = 0.0404 | x1 = 0.0499 | x1 = 0.0596 | x1 = 0.0698 | x1 = 0.0796 | x1 = 0.0874
303.15 K | 865.38 | 862.54 | 860.05 | 857.48 | 855.12 | 852.77 | 850.4 | 848.22 | 846.53
313.15 K | 854.76 | 852.03 | 849.61 | 847.12 | 844.87 | 842.65 | 840.38 | 838.28 | 836.65

CCCCN [1-butanamine]
[2]
Details | mass density [kg/m3]
303.15 K | 728.65
313.15 K | 719.17

CCCN [propan-1-amine]
[2]
Details | mass density [kg/m3]
303.15 K | 706.1
313.15 K | 696.04

CCCNCCC [dipropylamine] + c1ccccc1
mass density [kg/m3], [1]
Details | x1 = 0.0105 | x1 = 0.0207 | x1 = 0.0306 | x1 = 0.039 | x1 = 0.0508 | x1 = 0.0614 | x1 = 0.0723 | x1 = 0.0812 | x1 = 0.0917
303.15 K | 865.97 | 863.74 | 861.67 | 859.91 | 857.5 | 855.36 | 853.17 | 851.42 | 849.36
313.15 K | 855.38 | 853.26 | 851.24 | 849.55 | 847.19 | 845.11 | 843 | 841.29 | 839.28

CCCCN [1-butanamine] + c1ccccc1
mass density [kg/m3], [1]
Details | x1 = 0.0094 | x1 = 0.0195 | x1 = 0.0284 | x1 = 0.038 | x1 = 0.048 | x1 = 0.0588 | x1 = 0.0669 | x1 = 0.0764 | x1 = 0.0859
303.15 K | 866.8 | 865.19 | 863.77 | 862.3 | 860.74 | 859.06 | 857.8 | 856.32 | 854.84
313.15 K | 856.12 | 854.55 | 853.17 | 851.7 | 850.16 | 848.5 | 847.27 | 845.82 | 844.4

CCCNCCC [dipropylamine]
[2]
Details | mass density [kg/m3]
303.15 K | 731.21
313.15 K | 726.15

CCCN(CCC)CCC [tripropylamine]
[2]
Details | mass density [kg/m3]
303.15 K | 749.15
313.15 K | 740.41

CCCCN(CCCC)CCCC [tributylamine] + C1CCCCC1
mass density [kg/m3], [1]
Details | x1 = 0.0103 | x1 = 0.0216 | x1 = 0.0318 | x1 = 0.0402 | x1 = 0.0516 | x1 = 0.0598 | x1 = 0.0709 | x1 = 0.0807 | x1 = 0.0861
303.15 K | 768.92 | 768.75 | 768.65 | 768.57 | 768.46 | 768.38 | 768.26 | 768.18 | 768.14
313.15 K | 759.38 | 759.25 | 759.17 | 759.09 | 758.99 | 758.97 | 758.92 | 758.91 | 758.99

CCN(CC)CC [triethylamine]
[2]
Details | mass density [kg/m3]
303.15 K | 718.44
313.15 K | 709.05

CCCN(CCC)CCC [tripropylamine] + c1ccccc1
mass density [kg/m3], [1]
Details | x1 = 0.0104 | x1 = 0.0206 | x1 = 0.0307 | x1 = 0.0402 | x1 = 0.0497 | x1 = 0.0596 | x1 = 0.0693 | x1 = 0.0788 | x1 = 0.0889
303.15 K | 865.5 | 862.82 | 860.21 | 857.87 | 855.54 | 853.15 | 850.88 | 848.69 | 846.42
313.15 K | 854.85 | 852.24 | 849.71 | 847.43 | 845.18 | 842.85 | 840.66 | 838.55 | 836.35

CCCCNCCCC [dibutylamine]
[2]
Details | mass density [kg/m3]
303.15 K | 752.28
313.15 K | 743.44

CCCN [propan-1-amine] + c1ccccc1
mass density [kg/m3], [1]
Details | x1 = 0.0079 | x1 = 0.0186 | x1 = 0.028 | x1 = 0.0366 | x1 = 0.047 | x1 = 0.0579 | x1 = 0.0659 | x1 = 0.0759 | x1 = 0.0844
303.15 K | 867.07 | 865.41 | 863.91 | 862.58 | 860.86 | 859.18 | 857.86 | 856.37 | 854.97
313.15 K | 856.39 | 854.75 | 853.34 | 852.02 | 850.44 | 848.78 | 847.56 | 846.03 | 844.73

CCCN [propan-1-amine] + C1CCCCC1
mass density [kg/m3], [1]
Details | x1 = 0.0076 | x1 = 0.0169 | x1 = 0.0282 | x1 = 0.0365 | x1 = 0.0483 | x1 = 0.057 | x1 = 0.0652 | x1 = 0.0747 | x1 = 0.0859
303.15 K | 768.47 | 767.75 | 766.86 | 766.22 | 765.3 | 764.61 | 763.97 | 763.25 | 762.47
313.15 K | 758.92 | 758.21 | 757.38 | 756.8 | 755.92 | 755.27 | 754.68 | 753.96 | 753.15

CCCN(CCC)CCC [tripropylamine] + C1CCCCC1
mass density [kg/m3], [1]
Details | x1 = 0.0109 | x1 = 0.02 | x1 = 0.0305 | x1 = 0.0406 | x1 = 0.0511 | x1 = 0.0596 | x1 = 0.0693 | x1 = 0.0787 | x1 = 0.0878
303.15 K | 768.54 | 768.11 | 767.6 | 767.14 | 766.65 | 766.35 | 765.93 | 765.54 | 765.16
313.15 K | 758.99 | 758.57 | 758.14 | 757.71 | 757.28 | 756.93 | 756.56 | 756.18 | 755.84

CCN(CC)CC [triethylamine] + C1CCCCC1
mass density [kg/m3], [1]
Details | x1 = 0.0102 | x1 = 0.0192 | x1 = 0.0299 | x1 = 0.0422 | x1 = 0.0498 | x1 = 0.0618 | x1 = 0.0712 | x1 = 0.0799 | x1 = 0.0895 | x1 = 0.0995
303.15 K | 768.28 | 767.5 | 766.58 | 765.57 | 764.97 | 764.04 | 763.35 | 762.72 | 762.05 | 761.36
313.15 K | 758.66 | 757.93 | 757.05 | 756.07 | 755.48 | 754.54 | 753.86 | 753.22 | 752.62 | 751.88

C1CCCCC1 [cyclohexane]
[2]
Details | mass density [kg/m3]
303.15 K | 769.1
313.15 K | 759.52

CCCCN(CCCC)CCCC [tributylamine]
[2]
Details | mass density [kg/m3]
303.15 K | 770.21
313.15 K | 763.11

CCCCNCCCC [dibutylamine] + C1CCCCC1
mass density [kg/m3], [1]
Details | x1 = 0.0109 | x1 = 0.0204 | x1 = 0.0298 | x1 = 0.0392 | x1 = 0.0493 | x1 = 0.0583 | x1 = 0.0689 | x1 = 0.0797 | x1 = 0.0881
303.15 K | 768.53 | 768.07 | 767.62 | 767.24 | 766.84 | 766.46 | 766.05 | 765.6 | 765.27
313.15 K | 759.01 | 758.59 | 758.19 | 757.79 | 757.36 | 756.99 | 756.55 | 756.11 | 755.77

c1ccccc1 [benzene]
[2]
Details | mass density [kg/m3]
303.15 K | 868.3
313.15 K | 857.59

CCCCNCCCC [dibutylamine] + c1ccccc1
mass density [kg/m3], [1]
Details | x1 = 0.0108 | x1 = 0.0201 | x1 = 0.03 | x1 = 0.039 | x1 = 0.0487 | x1 = 0.0593 | x1 = 0.0689 | x1 = 0.0797 | x1 = 0.0892
303.15 K | 865.75 | 863.58 | 861.33 | 859.32 | 857.18 | 854.88 | 852.86 | 850.62 | 848.69
313.15 K | 855.17 | 853.13 | 851 | 849.09 | 847.05 | 844.85 | 842.92 | 840.79 | 838.92

CCCCN [1-butanamine] + C1CCCCC1
mass density [kg/m3], [1]
Details | x1 = 0.0097 | x1 = 0.0197 | x1 = 0.0282 | x1 = 0.038 | x1 = 0.0471 | x1 = 0.0581 | x1 = 0.0674 | x1 = 0.0724 | x1 = 0.0873
303.15 K | 768.39 | 767.7 | 767.1 | 766.38 | 765.76 | 764.98 | 764.35 | 764.08 | 763.14
313.15 K | 758.82 | 758.12 | 757.54 | 756.91 | 756.3 | 755.61 | 754.91 | 754.62 | 753.62
